Each block holds one compound with its values, some of them ahead of it. No end group written: not given here.
Tests used:
[1] = target: Fyn SH3 domain-GST fusion protein (Homo sapiens, UniProt P06241); assay: Fluorescence polarization direct binding assay, Fyn SH3
Experimental: (§1) Polarization was measured by excitation with vertically polarized light at 485 nm and the fluorescence emission detected at 530 nm in both the vertical and horizontal directions. An average of five measurements were recorded for each well. Samples were equilibrated at room temperature for 25 min before analysis, a time sufficient for the binding reactions to reach equilibrium. The polarization data were fit using Kaleidagraph v3.6 software to Eq. 5, which is derived from first principles without assumptions. […] In this equation, Pobs is the observed polarization value at any given concentration of target protein (GST•SH3 domain). Pmin is the polarization of peptide^Flu at 50 nM in the absence of target protein. Pmax is the maximum polarization of peptide^Flu at saturation with target protein. Kd is the equilibrium dissociation constant. […] In these cases a lower limit Kd was estimated by setting Pmax equal to the observed polarization at the highest target protein concentration tested, which was often limited by solubility. […] Free fits are shown. Kd values were estimated as described. […] In several cases, the plots of polarization versus [SH3 domain] began to increase at high [SH3 domain] (>50 micromolar), perhaps because of a second binding event. In these cases (indicated by an asterisk (*) in Table 5), data above 50 micromolar target protein was excluded during the curve fits.

[2] = target: Lyn SH3 domain-GST fusion protein (Homo sapiens, UniProt P07948); assay: Fluorescence polarization direct binding assay, Lyn SH3
Experimental: as §1

c-Src SH3^P133L = c-Src SH3^P133L (Gallus gallus, UniProt P00523, P133L); assay: Fluorescence polarization direct binding assay, c-Src SH3^P133L; design: species or system chicken
Experimental: (§2) Polarization was measured by excitation with vertically polarized light at 485 nm and the fluorescence emission detected at 530 nm in both the vertical and horizontal directions. An average of five measurements were recorded for each well. Samples were equilibrated at room temperature for 25 min before analysis, a time sufficient for the binding reactions to reach equilibrium. The polarization data were fit using Kaleidagraph v3.6 software to Eq. 5, which is derived from first principles without assumptions. […] In this equation, Pobs is the observed polarization value at any given concentration of target protein (GST•SH3 domain). Pmin is the polarization of peptide^Flu at 50 nM in the absence of target protein. Pmax is the maximum polarization of peptide^Flu at saturation with target protein. Kd is the equilibrium dissociation constant. […] Free fits are shown. Kd values were estimated as described.

[3] = target: Lck SH3 domain-GST fusion protein (Homo sapiens, UniProt P06239); assay: Fluorescence polarization direct binding assay, Lck SH3
Experimental: as §1

[4] = target: Hck SH3 domain-GST fusion protein (Homo sapiens, UniProt P08631); assay: Fluorescence polarization direct binding assay, Hck SH3
Experimental: as §2

[5] = target: c-Src SH3 domain-GST fusion protein (Gallus gallus, UniProt P00523); assay: Fluorescence polarization direct binding assay, c-Src SH3; design: species or system chicken
Experimental: as §2

[6] = Temperature-dependent sedimentation equilibrium of aPP^Y7AP13SV14P, monomer-dimer-tetramer fit; assay type: physicochemical; conditions: for % monomer: at 30 micromolar total peptide concentration; for ln KA (m): m fixed to 4 (tetramer), PBS
Experimental: aPP^Y7AP13SV14P samples were prepared in Dulbecco's PBS buffer (as described above) at concentrations of 45, 90, and 180 micromolar. Sedimentation equilibrium experiments were performed as described above and monitored at 280 nm. Samples were centrifuged to equilibrium at three speeds (42,000, 50,000, and 60,000 rpm) at 5, 10, 15, 20, 25, and 30° C. The rotor containing the samples was agitated manually between temperature runs to redistribute the sample along the length of the cell and checked by an initial scan.
The sedimentation data obtained for aPP^Y7AP13SV14P at each temperature was globally fit to Eq. 2 as described above. […] Therefore, the data from within each temperature set was then globally fit to a monomer-n-mer-m-mer model. Based on the self-association trends of the other aPP variants, in which the folded peptides best fit to a monomer-dimer model and the unfolded peptides fit to a monomer-tetramer model, the values for n and m were fixed to 2 and 4 respectively. Data fit with these parameters and the resulting residuals are presented in FIG. 5 and a summary of the fitted parameter results are given in Table 3. […] Samples were prepared in PBS buffer (90 micromolar) and centrifuged to equilibrium at speeds of 42,000 (51), 50,000 (52), and 60,000 (53) rpm.

[7] = Circular dichroism (wavelength- and temperature-dependent) of aPP variants, Example 1; assay type: physicochemical; conditions: 30 micromolar; for CD ellipticity at 222 nm: Tris buffer pH 8.0, 25° C.
Experimental: The CD spectra of each peptide (30 micromolar) were acquired in Tris buffer (25 mM Tris base, 50 mM NaCl, (pH 8.0)) at 25° C. in a 2 mm cell. Samples were scanned between 200 and 260 nm, with signal sampling every 0.5 nm, and three successive scans were averaged. Molar residue ellipticity values were calculated from the equation MRE=(Θsample−Θbuffer)/(L×c×n×1000), where Θ is the observed signal in millidegrees, L is the length of the cuvette in cm, c is the concentration of peptide in dmol cm^−3 and n is the number of amino acids in the molecule.
Temperature-dependent CD spectra of aPP^Y7AP13SV14P (30 micromolar) were acquired in Dulbecco's PBS (1 mM KH2PO4, 155 mM NaCl, 3 mM Na2HPO4, (pH 7.4)) in a 2 mm cell. The signal at 222 nm (MRE222) was monitored between 1° C. and 80° C. using the variable temperature module provided with the instrument. Data were collected with a 0.5° C. data pitch, 5 s delay time, 20° C./hour temperature slope, 4 s response, and 1 nm bandwidth. CD spectra were obtained as the temperature was raised and when the temperature was lowered to establish the reversibility of the folding transition. Additionally, a full wavelength scan was obtained before and after the thermal melt; an overlay of the two spectra is shown in FIG. 3A. […] Mean residue ellipticity values for the temperature dependent CD spectrum were calculated from the equation MRE=Θ222 nm/(L×c×n×1000), where Θ is observed signal at 222 nm (mdeg), L is the length of, the cuvette (cm), c is the concentration of peptide (dmol/cm^3) and n is the number of amino acids in the molecule. The first derivatives of the temperature-dependent CD spectra are shown in FIG. 3B, which is a plot of δMRE222/δT (units of deg cm^2 dmol^−1 K^−1). The Tm value reported in the main text corresponds to the temperature at which ∂MRE222/∂T is a maximum.

[8] = Sedimentation equilibrium analytical ultracentrifugation of aPP variants, monomer-n-mer fit (self-association); assay type: physicochemical; conditions: for % monomer at 30 μM: 30 μM peptide; for % monomer at 30 μM / lnKA when n = 2 / n (stoichiometry of the self-associated complex): 25° C.; for lnKA when n = 2: monomer-dimer; for n (stoichiometry of the self-associated complex): monomer-n-mer fit; for Kd (self-association, dimer): n = 2, 25° C., calculated from ln KA
Experimental: Analytical ultracentrifugation experiments were performed using peptide solutions prepared in Tris.Cl buffer (25 mM Tris base, 50 mM NaCl, (pH 8.0)) at the appropriate concentrations (5 micromolar to 200 micromolar). Samples were then centrifuged to equilibrium at 25° C. at 42,000, 50,000, and 60,000 rpm. Data were collected with a 0.001 cm step size and successive scans were initiated at 2 h intervals. Samples were judged to have reached equilibrium when the radial concentration gradient remained unchanged over three successive scans using the Match module of Heteroanalysis software v1.1.19. The solvent density (ρ, rho) and partial specific volume ( ν, nu) were calculated using the Sedimentation Interpretation Program “Sednterp” software v1.08.
The data for each peptide (multiple concentrations at three speeds) was first fit globally to an equation describing the sedimentation of an ideal species of molecular weight Mn (Eq. 1) using Heteroanalysis software v1.1.19:
where C represents the concentration of the sedimenting species at distances r and r0 cm from the center of rotation; ν (nu) is the partial specific volume of the sedimenting species in cc/g; ρ (rho) is the density of the supporting buffer in g/cc; ω (omega) is the angular velocity of the rotor (radians/s); Mn is the “molar” molecular weight of sedimenting species (g/mol); R is the universal gas constant (8.315×10^7 ergs K^−1 mol^−1) and T is the temperature in degrees Kelvin.
In order to quantify this self-association, the data for each peptide was next fit globally to a monomer-n-mer equilibrium model using Eq. 2:
where n is the stoichiometry of the self-associated complex. Errors were calculated for n and lnKA using f-statistics to two standard deviations.
Samples were prepared in PBS buffer and centrifuged at speeds of 42,000 (41), 50,000 (42), or 60,000 RPM (43) at 25° C. Experimental data are shown as points; lines indicate the best fit to a monomer-n-mer model described by Eq. 2.

[9] = pH- and temperature-dependent; read-out: equilibrium dissociation constant (Kd) of the aPP dimer; cited from earlier work

Hck SH3 domain-GST fusion protein, sequence (P08631 77-137): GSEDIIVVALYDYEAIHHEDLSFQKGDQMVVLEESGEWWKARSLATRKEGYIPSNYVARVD
Lyn SH3 domain-GST fusion protein, sequence (P07948 62-122): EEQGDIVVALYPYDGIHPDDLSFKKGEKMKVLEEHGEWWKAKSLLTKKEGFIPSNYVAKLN
Fyn SH3 domain-GST fusion protein, sequence (P06241 81-142): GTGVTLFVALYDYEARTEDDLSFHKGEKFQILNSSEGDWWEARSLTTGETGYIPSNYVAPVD
Lck SH3 domain-GST fusion protein, sequence (P06239 62-128): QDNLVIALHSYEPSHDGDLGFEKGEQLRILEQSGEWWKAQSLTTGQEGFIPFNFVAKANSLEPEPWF

Compound: CC(C)C[C@H](NC(=O)[C@@H]1CCCN1C(=O)[C@@H]1CCCN1C(=O)[C@H](C)NC(=O)CNC(=O)CNC(=O)[C@@H](N)CSCC(=O)Nc1ccc2c(c1)C(=O)OC21c2ccc(O)cc2Oc2cc(O)ccc21)C(=O)N1CCC[C@H]1C(=O)N1CCC[C@H]1C(=O)N[C@@H](CCCNC(=N)N)C(=O)N[C@@H](CC(N)=O)C(=O)N[C@@H](CCCNC(=N)N)C(=O)N1CCC[C@H]1C(=O)N[C@@H](CCCNC(=N)N)C(N)=O [^Flu1]
- Kd [1]: 1400 ± 200 nM
- Kd [2]: 2000 ± 300 nM
- Kd (c-Src SH3^P133L): > 100000 nM
- Kd [3]: > 20000 nM
- Kd [4]: 1600 ± 200 nM
- Kd [5]: 1500 ± 100 nM

- n (monomer-n-mer fit, Eq. 2) ([6]; 5° C.): 2.5
- % monomer ([6]; 5° C.): 74%
- ln KA (m) ([6]; 5° C.): 25.7 (25.3, 26.0)
- % monomer ([6]; 10° C.): 82%
- ln KA (m) ([6]; 10° C.): 25.3 (25.0, 25.5)
- % monomer ([6]; 15° C.): 84%
- ln KA (m) ([6]; 15° C.): 25.6 (25.4, 25.8)
- % monomer ([6]; 20° C.): 90%
- ln KA (m) ([6]; 20° C.): 25.0 (24.8, 25.2)
- KD (tetramer, monomer/dimer/tetramer model) ([6]; 25° C.): 6.8×10^−12 M^3
- % dimer ([6]; 25° C., at 30 micromolar): 9%
- % tetramer ([6]; 25° C., at 30 micromolar): 1%
- % monomer ([6]; 25° C.): 90%
- ln KA (m) ([6]; 25° C.): 25.7 (25.4, 26.0)
- n (monomer-n-mer fit, Eq. 2) ([6]; 30° C.): 3.6
- % monomer ([6]; 30° C.): 98%
- ln KA (m) ([6]; 30° C.): 24.4 (24.2, 24.5)
- CD ellipticity at 222 nm [7]: -9700 deg cm^2 dmol^−1
- Tm (cooperative unfolding transition) ([7]; temperature-dependent CD at 222 nm): 20 °C
Compound: GPSQPTAPGDDASPEDLIRFYDNLQQYLNVVTRHRY [aPP^Y7AP13SV14P]

- % monomer at 30 μM [8]: 14%
- lnKA when n = 2 [8]: when n = 2 13.57
- n (stoichiometry of the self-associated complex) [8]: 1.86
- Kd (self-association, dimer) [8]: 1300 nM
- CD ellipticity at 222 nm [7]: -14700 deg cm^2 dmol^−1
Compound: GPSQPTYPGDDAPVEDLIRFADNLQQYLNVVTRHRY [aPP^Y21A]

- Kd (self-association, dimer) [8]: 4100 nM
Compound: avian pancreatic polypeptide (GPSQPTYPGDDAPVEDLIRFYDNLQQYLNVVTRHRY; ends and bridges not checked) [aPP, purchased from American Peptide Company, reference compound]
- Kd [9]: 0.4 to 5000 nM
- % monomer at 30 μM [8]: 23%
- % in the dimer state at 30 micromolar ([8]; 30 micromolar): > 94%
- lnKA when n = 2 [8]: when n = 2 12.41
- n (stoichiometry of the self-associated complex) [8]: 1.92

— patent US20100273722A1, “MODIFIED MINIATURE PROTEINS” (Yale University, priority 2007, published 2010)
